Test results published in EP4631938A1, “NITROGEN-CONTAINING HETEROCYCLE WITH SEROTONIN RECEPTOR-BINDING ACTIVITY AND CARBOCYCLIC DERIVATIVE” (Shionogi & Co., Ltd, priority 2022, dated 2024).

Legend:
[1] = biological target: T1, human recombinant 5-HT2A receptor (Homo sapiens, UniProt P28223); experiment: Test Example 1-2: 5-HT2A receptor binding inhibition test ([3H]-Ketanserin; non-specific ligand Ketanserin)
T1 construct: expressed in transfected cells; host or cells: Jump-In HEK cells (membrane preparation)
T1 sequence (P28223 whole entry): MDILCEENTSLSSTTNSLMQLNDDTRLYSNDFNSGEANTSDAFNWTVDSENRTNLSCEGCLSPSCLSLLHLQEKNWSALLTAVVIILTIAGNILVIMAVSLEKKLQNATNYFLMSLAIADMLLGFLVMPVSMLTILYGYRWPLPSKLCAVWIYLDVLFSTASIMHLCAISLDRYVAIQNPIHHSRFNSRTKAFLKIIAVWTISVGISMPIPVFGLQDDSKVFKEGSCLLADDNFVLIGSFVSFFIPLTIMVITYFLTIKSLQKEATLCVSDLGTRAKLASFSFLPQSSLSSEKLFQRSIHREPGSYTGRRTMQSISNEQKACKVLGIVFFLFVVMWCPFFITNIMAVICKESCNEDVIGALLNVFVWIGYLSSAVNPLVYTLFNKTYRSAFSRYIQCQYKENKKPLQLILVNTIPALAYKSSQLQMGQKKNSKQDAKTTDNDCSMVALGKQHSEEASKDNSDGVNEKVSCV
Summary of the method: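 Ki values were derived from dose-response inhibition of [3H]-ketanserin binding; nonspecific binding was set with 500 µmol/L ketanserin, and Kd was set for each membrane lot from Scatchard saturation plots. Incubation lasted 1.5 h at room temperature (25 °C). Bound radioligand was harvested on Tris-HCl (pH 7.4)-presoaked filters and counted.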

[2] = biological target: T2, human recombinant 5-HT2C receptor (Homo sapiens, UniProt P28335); experiment: Test Example 2-2: 5-HT2C receptor binding inhibition test ([3H]-Mesulergine; non-specific ligand Ketanserin); conditions: non-specific binding with 500 µmol/L Ketanserin, 37°C, 2 hours
T2 construct: expressed in transfected cells; host or cells: Jump-In HEK cells (membrane preparation)
T2 sequence (P28335 33-458): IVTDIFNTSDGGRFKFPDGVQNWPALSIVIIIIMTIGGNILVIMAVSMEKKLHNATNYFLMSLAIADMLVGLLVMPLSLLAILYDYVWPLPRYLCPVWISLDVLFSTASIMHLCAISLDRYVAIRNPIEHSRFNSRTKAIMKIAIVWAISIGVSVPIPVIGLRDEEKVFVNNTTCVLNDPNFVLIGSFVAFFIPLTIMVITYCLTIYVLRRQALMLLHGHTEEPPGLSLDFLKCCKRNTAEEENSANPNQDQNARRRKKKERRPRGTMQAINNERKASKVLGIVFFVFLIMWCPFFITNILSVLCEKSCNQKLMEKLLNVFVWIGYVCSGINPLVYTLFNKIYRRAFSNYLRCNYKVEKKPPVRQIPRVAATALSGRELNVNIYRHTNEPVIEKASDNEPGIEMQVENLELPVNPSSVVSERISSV
Summary of the method: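 Membranes expressing the receptor were incubated with compound and [3H]-Mesulergine for 2 h at 37 °C, then filtered and counted by scintillation. Non-specific binding was defined with 500 µmol/L Ketanserin. Percent inhibition versus vehicle gave dose-response curves, from which Ki was derived using a Kd from Scatchard saturation analysis.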

[3] = biological target: T3, human ether-a-go-go related gene (hERG) channel (Homo sapiens, UniProt Q12809); experiment: Test Example 3: hERG test (FluxORII thallium flux, FLIPR, 8000 cells/well); assay type: cell-based; conditions: CHO cells expressing hERG channel, compound reacted for 10 minutes, 100% inhibition = E-4031 10.3 µmol/L
T3 construct: expressed in transfected cells; host or cells: CHO cells
T3 sequence (Q12809 whole entry): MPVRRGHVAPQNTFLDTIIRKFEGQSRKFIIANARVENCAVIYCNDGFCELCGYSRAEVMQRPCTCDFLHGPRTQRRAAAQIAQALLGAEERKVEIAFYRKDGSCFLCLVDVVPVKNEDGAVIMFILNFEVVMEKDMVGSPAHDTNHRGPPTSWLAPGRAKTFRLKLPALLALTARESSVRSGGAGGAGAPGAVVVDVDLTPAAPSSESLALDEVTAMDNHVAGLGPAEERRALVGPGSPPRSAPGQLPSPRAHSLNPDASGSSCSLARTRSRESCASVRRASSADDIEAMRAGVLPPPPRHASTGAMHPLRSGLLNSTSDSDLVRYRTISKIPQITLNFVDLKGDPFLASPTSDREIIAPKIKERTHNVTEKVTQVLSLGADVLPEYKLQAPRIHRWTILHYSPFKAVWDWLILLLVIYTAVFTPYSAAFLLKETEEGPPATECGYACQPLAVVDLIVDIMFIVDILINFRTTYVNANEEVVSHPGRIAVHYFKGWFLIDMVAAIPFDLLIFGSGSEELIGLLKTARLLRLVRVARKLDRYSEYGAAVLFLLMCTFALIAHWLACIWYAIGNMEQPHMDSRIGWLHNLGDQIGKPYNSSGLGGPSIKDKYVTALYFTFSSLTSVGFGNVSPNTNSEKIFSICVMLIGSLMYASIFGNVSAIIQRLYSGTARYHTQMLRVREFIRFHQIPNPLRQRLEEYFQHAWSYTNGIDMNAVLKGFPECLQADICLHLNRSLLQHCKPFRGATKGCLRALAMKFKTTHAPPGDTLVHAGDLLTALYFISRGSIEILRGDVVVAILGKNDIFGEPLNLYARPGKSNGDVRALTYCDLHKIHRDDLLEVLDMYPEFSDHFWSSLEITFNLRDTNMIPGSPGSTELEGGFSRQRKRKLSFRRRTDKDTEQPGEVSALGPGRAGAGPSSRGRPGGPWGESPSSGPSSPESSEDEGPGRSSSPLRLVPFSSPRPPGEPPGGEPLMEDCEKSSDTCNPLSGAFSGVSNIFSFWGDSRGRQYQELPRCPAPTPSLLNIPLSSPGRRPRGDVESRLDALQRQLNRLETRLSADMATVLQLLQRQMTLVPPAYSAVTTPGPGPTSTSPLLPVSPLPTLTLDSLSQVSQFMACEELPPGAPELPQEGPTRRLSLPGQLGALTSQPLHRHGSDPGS
Experimental: For the purpose of evaluating risk of an electrocardiogram QT interval prolongation of the compound of the present invention, effects of the compound are studied by evaluating the activity of potassium channel using CHO cells expressing human ether-a-go-go related gene (hERG) channel.
Evaluation is performed using a FluxORII Green Potassium Ion Channel Assay kit (Invitrogen: Molecular Probes).
Cells (8000 cells/well/40 µL) are seeded in a 384 assay plate, and are incubated overnight (37°C, 5% CO2). […]
A cell plate is placed on a cell-based kinetic assay system FLIPR (Molecular Devices, LLC.), and the compound is added to the cells so as to have a desired concentration and reacted for 10 minutes. When a mixed solution of potassium and thallium as a stimulator is added thereto, the potassium channel is opened, and thallium that flowed into the cells binds to the fluorescent indicator, so that the intracellular fluorescence signal increases, and the potassium channel current is detected as a fluorescence signal. […] Then, the inhibition rate is calculated from the signal intensity at each concentration. IC50 is calculated from the inhibition rate at each concentration.

| SMILES | Ki [1] | Ki [2] | IC50 [3] |
| --- | --- | --- | --- |
| Cc1cnn(C)c1-c1cc(Nc2ncc(C(F)(F)F)cc2F)ncc1OCCO [Compound I-063] | 0.337 nM | 2.09 nM | > 52000 nM |
| Cn1ncc(Br)c1-c1cc(Nc2ncc(C(F)(F)F)cc2F)ncc1OCCO [Compound I-062] | 0.286 nM | 0.366 nM | > 52000 nM |
